IC50 data for 31 compounds are collected here from patent US20250346584A1, “NOVEL KAPPA OPIOID LIGANDS” (The Scripps Research Institute, priority 2012, published 2025).

For this assay, the target named is kappa opioid receptor (OPRK1) (Homo sapiens (Human), UniProt P41145). Briefly: OPRK1 antagonist assay (b-arrestin-2-TEV / b-lactamase reporter cell line, EC80 U-50488 challenge). Conditions: read-out: IC50 nM (% inhib if other than 50%); antagonist mode vs EC80 U-50488; NA = not active at concentrations up to 10 μM. It counts as cell-based.
Sequence of kappa opioid receptor (OPRK1) (P41145 whole entry): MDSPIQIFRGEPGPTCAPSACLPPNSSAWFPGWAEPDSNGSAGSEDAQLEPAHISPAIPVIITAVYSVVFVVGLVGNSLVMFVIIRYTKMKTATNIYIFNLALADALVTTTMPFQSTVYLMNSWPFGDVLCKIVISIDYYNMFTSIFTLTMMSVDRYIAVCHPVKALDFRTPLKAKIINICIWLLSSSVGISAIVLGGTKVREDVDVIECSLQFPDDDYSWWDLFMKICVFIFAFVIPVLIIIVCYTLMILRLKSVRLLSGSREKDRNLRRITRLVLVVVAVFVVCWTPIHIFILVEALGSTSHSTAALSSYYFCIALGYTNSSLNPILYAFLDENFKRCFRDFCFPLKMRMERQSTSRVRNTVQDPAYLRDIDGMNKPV
As to `Cc1cc(-c2nc(C)no2)c(N2CC[C@@H](NC3CCCCC3)[C@H](O)C2)nn1` [compound 175], the IC50 came out at 46 nM. Then `Cc1noc(-c2cc(Br)cnc2N2CCC(NC3CCCCC3)CC2)n1` [compound 41], with 331 nM. For `Cc1nc(-c2cc3ccc(F)cc3nc2N2CCC(NC3CCOCC3)CC2)no1` [compound 482], the IC50 turned out to be 75 nM. On to `Cc1noc(-c2cc3c(nc2N2CCC(NC4CCCCC4)C(CO)C2)CCCC3)n1` (stereo not shown) [compound 191], for which the IC50 was 420 nM.

With `COC1CN(c2ncc(C)cc2-c2ncco2)CCC1NC1CCCCC1` (stereo not shown) [C70], the IC50 worked out at 17000 nM.

Regarding `Cc1noc(-c2cc3c(F)cccc3nc2N2CCC(NCC(C)C)CC2)n1` [compound 526], the IC50 turned out to be 49 nM.

On to `COC1CN(c2nc(C)c(C)cc2-c2nc(C)no2)CCC1NCC(C)C` (stereo not shown) [compound 378], for which the IC50 amounted to 256 nM. For the compound `CCc1noc(-c2cc3cc(C)ccc3nc2N2CCC(NC3CCCC3)C(OC)C2)n1` (stereo not shown) [compound 310], the IC50 stood at 4 nM. As to `Cc1nc(-c2cc3cc(C)c(F)cc3nc2N2CCC(NCC(C)C)CC2)no1` [compound 513], the IC50 turned out to be 27 nM. With `COC1CN(c2ncc(C)cc2-c2nccc(C)n2)CCC1NC1CCCCC1` (stereo not shown) [compound 384], the IC50 stood at 16700 nM.

As for `Cc1cnc(N2CCC(NC3CCCCC3C)C(CO)C2)c(-c2nc(C)no2)c1` (stereo not shown) [compound 203], the IC50 came out at 132 nM. Take `Cc1ccc2nc(N3CCC(NC(C)C4CCCCC4)CC3)c(-c3nc(C)no3)cc2c1` (stereo not shown) [compound 349]: the IC50 is 21 nM. The result for `Cc1nc(-c2cc3cc(F)ccc3nc2N2CCC(NC3CCCCC3)CC2)no1` [compound 467] reads 431 nM; that for `CNC(=O)c1cc2cc(C)ccc2nc1N1CCC(NC2CCCCC2)C(OC)C1` (stereo not shown) [compound 278], 4720 nM; that for `COC(=O)c1cc(Br)cnc1N1CCC(NC2CCOCC2)C(O)C1` (stereo not shown) [compound 61], 54 nM. The result for `COC1CN(c2ncc(C)cc2-c2nc(C)no2)CCC1NC1CCCC1` (stereo not shown) [compound 316] reads 23 nM; that for `CO[C@@H]1CN(c2nc3ccccc3cc2-c2cnc(C)cn2)CC[C@@H]1NC1CCCCC1` [compound 471], 170 nM. The result for `COC(=O)c1cc(Br)cnc1N1CCC(NC2CCCCC2CO)CC1` (stereo not shown) [compound 65] reads 2300 nM; that for `COC(=O)c1cc(Br)cnc1N1CCC(NC2CCCCC2)C(C(=O)OC)C1` (stereo not shown) [compound 116], 793 nM; that for `Cc1noc(-c2cc3ccccc3nc2N2CCC(NC3CCCCCC3)C(CO)C2)n1` (stereo not shown) [compound 200], 14 nM. For the compound `COC(=O)c1cc(C)cnc1N1CCC(NC2CCCCC2)C(O)C1` (stereo not shown) [compound 110], the IC50 is 108 nM.

With `Cc1cnc(N2CCC(NC3CCCCC3)CC2)c(-c2ccncn2)c1` [compound 517], the IC50 came out at 1140 nM. With `Cc1ccc2nc(N3CCC(NC4CC(C)OC(C)C4)CC3)c(-c3nc(C)no3)cc2c1` (stereo not shown) [compound 274], the IC50 turned out to be 50 nM. For `COC1CN(c2nc3ccc(C)cc3cc2-c2nc(C)no2)CCC1NC1CCCCC1F` (stereo not shown) [compound 249], the IC50 was determined as 9 nM. Regarding `Cc1noc(-c2cc3ccccc3nc2N2CCC(NC3CCCCC3)C2)n1` (stereo not shown) [compound 212], the IC50 is 267 nM. The result for `CO[C@H]1CN(c2nc3ccc(C)cc3cc2-c2nc(C)no2)CC[C@H]1NCC(C)C` [compound 529] reads 369 nM. Turning to `Cc1nc(-c2cc3cc(F)ccc3nc2N2CCC(NC3CCCC3)CC2)no1` [compound 468], the IC50 was 175 nM.

Take `COC(=O)c1cc(Br)cnc1N1CC2CN(C3CCCCC3)CC2C1` (stereo not shown) [compound 49]: the IC50 turned out to be 1300 nM.

With `CO[C@H]1CN(c2nc3cc(F)ccc3cc2-c2nc(C)no2)CC[C@H]1NCC(C)C` [compound 538], the IC50 amounted to 970 nM. Take `COC(=O)c1cc(I)cnc1N1CCC(NC2CCCCC2O)CC1` (stereo not shown) [compound 37]: the IC50 is 142 nM. Then `COC1CN(c2nc3ccccc3cc2-c2nc(C)no2)CCC1NC1CCCCC1` (stereo not shown) [compound 176], with 28 nM.

The term IC50 denotes the concentration that gives 50% inhibition.
